Assay results reported in paper PMC6891289 (Molecules, 2019).
Like-named read-outs stand apart in the source and are kept apart here.

Key:
[1] = molecular target: T1, acetylcholinesterase from Electrophorus electricus (electric eel) (type VI-S) (Electrophorus electricus, UniProt O42275); test: Ellman assay, […] nm, Michaelis-Menten fit; format: biochemical; conditions: no inhibitor, 0.1 to 1.6 mM substrate, phosphate buffer pH 8, 37 °C
T1 construct: gene ache; commercial native enzyme from Sigma, type VI-S lyophilized powder
T1 sequence (O42275 24-633): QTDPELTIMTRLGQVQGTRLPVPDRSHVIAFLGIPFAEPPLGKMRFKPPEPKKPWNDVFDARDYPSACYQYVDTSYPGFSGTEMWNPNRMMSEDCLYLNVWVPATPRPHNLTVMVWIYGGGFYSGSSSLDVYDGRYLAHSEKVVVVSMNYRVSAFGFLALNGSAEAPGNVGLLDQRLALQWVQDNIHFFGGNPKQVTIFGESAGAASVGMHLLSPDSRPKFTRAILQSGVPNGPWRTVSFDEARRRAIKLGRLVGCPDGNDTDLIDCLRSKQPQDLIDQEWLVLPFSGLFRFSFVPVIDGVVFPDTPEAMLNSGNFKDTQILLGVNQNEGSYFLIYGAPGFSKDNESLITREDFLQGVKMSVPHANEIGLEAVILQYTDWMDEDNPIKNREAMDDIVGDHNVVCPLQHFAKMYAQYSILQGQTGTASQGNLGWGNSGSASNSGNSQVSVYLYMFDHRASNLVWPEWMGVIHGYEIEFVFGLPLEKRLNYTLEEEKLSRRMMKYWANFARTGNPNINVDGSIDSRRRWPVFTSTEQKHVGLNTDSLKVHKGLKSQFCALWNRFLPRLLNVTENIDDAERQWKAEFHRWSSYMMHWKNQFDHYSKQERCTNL

[2] = molecular target: T1, acetylcholinesterase from Electrophorus electricus (electric eel) (type VI-S); test: Ellman assay, […] nm, 4PL fit; format: biochemical
[3] = read-out: no inhibition up to 50 μg/mL

Row | Compound | IC50 ([2]; read-out: IC50) [µM] | IC50 [2, 3] [µM] | other results
1 | CC(=O)SCC[N+](C)(C)C [Acetylthiocholine chloride] | – | – | Km [1]: 330 µM
2 | COc1ccc2cc3[n+](cc2c1OC)CCc1cc2c(cc1-3)OCO2 [berberine] | 2.8 | – | –
3 | COc1cc(/C=C/C(=O)O)ccc1O [ferulic acid] | – | > 257 | –
4 | O=C(O)c1cc(O)c(O)c(O)c1 [gallic acid] | 46.4 | – | –
5 | COc1cc(C(=O)O)ccc1O [vanillic acid] | – | > 297 | –
